Assay results: patent US8084466B2, “Bicyclic heteroaryl-substituted imidazoles as modulators of the histamine H4 receptor” (Janssen Pharmaceutica NV, priority 2007, dated 2011)

molecular target: T1, human histamine H4 receptor (Homo sapiens, UniProt Q9H3N8); test: Binding Assay on Recombinant Human Histamine H4 Receptor; conditions: competition binding with 3H-histamine (5 nM; KD 5 nM), membranes of SK-N-MC or COS7 cells expressing human H4 receptor; average of results; > = highest value tested
T1 construct: expressed in transfected cells; host or cells: SK-N-MC cells or COS7 cells, transient transfection with pH4R; cell membranes
Method: Biological Methods: Binding Assay on Recombinant Human Histamine H4 Receptor
SK-N-MC cells or COS7 cells were transiently transfected with pH4R and grown in 150 cm^2 tissue culture dishes. Cells were washed with saline solution, scraped with a cell scraper and collected by centrifugation (1000 rpm, 5 min). Cell membranes were prepared by homogenization of the cell pellet in 20 mM Tris-HCl with a polytron tissue homogenizer for 10 sec at high speed. Homogenate was centrifuged at 1000 rpm for 5 min at 4° C. The supernatant was then collected and centrifuged at 20,000×g for 25 min at 4° C. The final pellet was resuspended in 50 mM Tris-HCl. Cell membranes were incubated with ^3H-histamine (5-70 nM) in the presence or absence of excess histamine (10,000 nM). Incubation occurred at room temperature for […]. Membranes were harvested by rapid filtration over Whatman GF/C filters and washed 4 times with ice-cold 50 mM Tris HCl. Filters were then dried, mixed with scintillant and counted for radioactivity. SK-N-MC or COS7 cells expressing human histamine H4 receptor were used to measure the affinity of binding of other compounds and their ability to displace ^3H-ligand binding by incubating the above-described reaction in the presence of various concentrations of inhibitor or compound to be tested. For competition binding studies using ^3H-histamine, Ki values were calculated, based on an experimentally determined KD value of 5 nM and a ligand concentration of 5 nM, according to Y.-C.

T1 sequence (Q9H3N8 whole entry): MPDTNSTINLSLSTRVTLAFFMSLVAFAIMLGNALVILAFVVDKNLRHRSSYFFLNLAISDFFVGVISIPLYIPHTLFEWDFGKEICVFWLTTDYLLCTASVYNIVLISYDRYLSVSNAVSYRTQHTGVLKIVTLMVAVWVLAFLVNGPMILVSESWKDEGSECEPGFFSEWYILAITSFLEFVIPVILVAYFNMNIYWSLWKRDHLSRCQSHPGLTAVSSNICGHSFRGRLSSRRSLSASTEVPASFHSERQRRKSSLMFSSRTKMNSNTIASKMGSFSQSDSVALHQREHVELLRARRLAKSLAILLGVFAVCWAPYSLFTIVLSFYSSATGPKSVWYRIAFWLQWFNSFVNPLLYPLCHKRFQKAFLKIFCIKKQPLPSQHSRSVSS

Point of comparison: `Cc1[nH]c(-c2ccc3c(ccn3CCCN3CCN(C)CC3)c2)nc1-c1cccc(C(F)(F)F)c1` [Example 79, 1-[3-(4-Methyl-piperazin-1-yl)-propyl]-5-[5-methyl-4-(3-trifluoromethyl-phenyl)-1H-imidazol-2-yl]-1H-indole], Ki 228 nM. Against it:
- Cc1c(F)ccc2[nH]c(-c3ccc4c(c3)c(CN(C)C)cn4CCCC3CCN(C)CC3)nc12 [Example 86, {5-(5-Fluoro-4-methyl-1H-benzoimidazol-2-yl)-1-[3-(1-methyl-piperidin-4-yl)-propyl]-1H-indol-3-ylmethyl}-dimethyl-amine] — higher, > 10000 nM
- Cc1c(F)ccc2[nH]c(-c3ccc4c(c3)ncn4CCCCC3CCN(C)CC3)nc12 [Example 44, 5-Fluoro-4-methyl-1′-[4-(1-methyl-piperidin-4-yl)-butyl]-1H,1′H-[2.5′]bibenzoimidazolyl] — 13-fold higher, 3000 nM
- Fc1ccc2[nH]c(-c3cccc4c3ccn4CCCCC3CCNCC3)nc2c1 [Example 115, 5-Fluoro-2-[1-(4-piperidin-4-yl-butyl)-1H-indol-4-yl]-1H-benzoimidazole] — higher, > 10000 nM
- Cc1ccc2[nH]c(-c3cc4ccn(CCCC5CCNCC5)c4cc3Cl)nc2c1C [Example 100, 2-[6-Chloro-1-(3-piieridin-4-yl-propyl)-1H-indol-5-yl]-4,5-dimethyl-1H-benzoimidazole] — 15-fold higher, 3330 nM
- Cc1cccc2[nH]c(-c3ccc4ncn(CCCCC5CCN(C)CC5)c4c3)nc12 [Example 43, 4-Methyl-3′-[4-(1-methyl-piperidin-4-yl)-butyl]-1H,3′H-[2,5′]bibenzoimidazolyl] — 7.3-fold higher, 1670 nM
- Cc1ccc2[nH]c(-c3cccc4c3c(Cl)cn4CCCCC3CCNCC3)nc2c1C [Example 73, 2-[3-Chloro-1-(4-piperidin-4-yl-butyl)-1H-indol-4-yl]-4,5-dimethyl-1H-benzoimidazole] — 7.5-fold higher, 1710 nM
- Cc1cccc2[nH]c(-c3ccc4c(ncn4CCCC4CCNCC4)c3C)nc12 [Example 111, 4,4′-Dimethyl-1′-(3-piperidin-4-yl-propyl)-1H,1′H-[2,5′]bibenzoimidazolyl] — 2.1-fold higher, 478 nM
- Cc1cc(C)c2nc(-c3ccc4c(ccn4CCCC4CCN(C)CC4)c3)[nH]c2c1 [Example 61] — 1.7-fold lower, 135 nM
- Clc1ccc2nc(-c3cccc4c3ccn4CCCCC3CCNCC3)[nH]c2c1 [Example 140, 6-Chloro-2-[1-(4-piperidin-4-yl-butyl)-1H-indol-4-yl]-1H-benzoimidazole] — 15-fold higher, 3330 nM
- CN1CCC(CCCn2ccc3cc(-c4nc5cc(C(C)(C)C)ccc5[nH]4)cnc32)CC1 [Example 92] — 1.5-fold higher, 353 nM
- CN1CCC(CCCCn2ccc3c(-c4nc5cc(Cl)ccc5[nH]4)cccc32)CC1 [Example 68, 5-Chloro-2-{1-[4-(1-methyl-piperidin-4-yl)-butyl]-1H-indol-4-yl}-1H-benzoimidazole] — 1.5-fold higher, 343 nM
- Cc1cc(F)cc2[nH]c(-c3ccc4c(ncn4CCCC4CCNCC4)c3C)nc12 [Example 112, 6-Fluoro-4,4′-dimethyl-1′-(3-piperidin-4-yl-propyl)-1H,1′H-[2,5′]bibenzoimidazolyl] — within 1.5-fold, 251 nM
- Cc1cc(Cl)cc2[nH]c(-c3ccc4ccn(CCCCC5CCNCC5)c4c3)nc12 [Example 108] — 8.8-fold higher, 2000 nM
- CC(C)(C)c1ccc2[nH]c(-c3ccc4c(ccn4CCCN4CCNCC4)c3)nc2c1 [Example 63, 5-tert-Butyl-2-[1-(3-piperazin-1-yl-propyl)-1H-indol-5-yl]-1H-benzoimidazole] — 7.4-fold higher, 1680 nM
- CN1CCC(CCCCn2cnc3cc(-c4nc5cc(F)ccc5[nH]4)ccc32)CC1 [Example 120, 5-Fluoro-1′-[4-(1-methyl-piperidin-4-yl)-butyl]-1H,1′H-[2,5′]bibenzoimidazolyl] — 15-fold higher, 3330 nM
- Cc1c(F)ccc2[nH]c(-c3cnc4c(ccn4CCCC4CCNCC4)c3)nc12 [Example 91, 5-Fluoro-4-methyl-2-[1-(3-piperidin-4-yl-propyl)-1H-pyrrolo[2,3-b]pyridin-5-yl]-1H-benzoimidazole] — 3.3-fold higher, 762 nM
- Cc1ccc2[nH]c(-c3ccc4ncn(CCCCC5CCNCC5)c4c3)nc2c1C [Example 123, 4,5-Dimethyl-3′-(4-piperidin-4-yl-butyl)-1H,3′H-[2,5′]bibenzoimidazolyl] — 15-fold higher, 3330 nM
- Fc1ccc2[nH]c(-c3cccc4c3ccn4CCCCC3CCNCC3)nc2c1F [Example 110, 4,5-Difluoro-2-[1-(4-piperidin-4-yl-butyl)-1H-indol-4-yl]-1H-benzoimidazole] — 15-fold higher, 3330 nM
- CN1CCC(CCCCn2ccc3c(-c4nc5cc6ccccc6cc5[nH]4)cccc32)CC1 [Example 21, 2-{1-[4-(1-Methyl-piperidin-4-yl)-butyl]-1H-indol-4-yl}-1H-naphtho[2,3-d]imidazole] — within 1.5-fold, 187 nM
- Cc1ccc2[nH]c(-c3cccc4c3ccn4CCCCC3CCNCC3)nc2c1C [Example 106, 6,7-Dimethyl-2-[1-(4-piperidin-4-yl-butyl)-1H-indol-4-yl]-1H-benzoimidazole] — 12-fold higher, 2640 nM
- Cc1c(F)ccc2[nH]c(-c3ccc4c(ncn4CCCC4CCN(C)CC4)c3C)nc12 [Example 51, 5-Fluoro-4,4′-dimethyl-1′-[3-(1-methyl-piperidin-4-yl)-propyl]-1H,1′H-[2,5′]bibenzoimidazolyl] — 33-fold lower, 7 nM
- FC(F)(F)c1ccc2nc(-c3cccc4c3ccn4CCCCC3CCNCC3)[nH]c2c1 [Example 141, 2-[1-(4-Piperidin-4-yl-butyl)-1H-indol-4-yl]-6-trifluoromethyl-1H-benzoimidazole] — 9.5-fold higher, 2170 nM
- CN1CCC(CCCCn2cc(Cl)c3c(-c4nc5c(F)c(F)ccc5[nH]4)cccc32)CC1 [Example 75, 2-{3-Chloro-1-[4-(1-methyl-piperidin-4-yl)-butyl]-1H-indol-4-yl}-4,5-difluoro-1H-benzoimidazole] — 4.4-fold higher, 1000 nM
- c1cc(-c2nc3cc4c(cc3[nH]2)OCO4)c2ccn(CCCCC3CCNCC3)c2c1 [Example 76, 6-[1-(4-Piperidin-4-yl-butyl)-1H-indol-4-yl]-5H-[1,3]dioxolo[4′,5′:4,5]-benzo[1,2-d]imidazole] — 8.5-fold higher, 1940 nM
- Cc1c(F)ccc2[nH]c(-c3ccc4c(ccn4CCCN4CCNCC4)c3)nc12 [Example 33, 5-Fluoro-4-methyl-2-[1-(3-piperazin-1-yl-propyl)-1H-indol-5-yl]-1H-benzoimidazole] — 5.7-fold higher, 1290 nM
- Cc1cc(F)cc2[nH]c(-c3ccc4c(ncn4CCCC4CCN(C)CC4)c3C)nc12 [Example 55, 6-Fluoro-4,4′-dimethyl-1′-[3-(1-methyl-piperidin-4-yl)-proyl]-1H,1′H-[2,5′]bibenzoimidazolyl] — 57-fold lower, 4 nM
- Fc1cc2nc(-c3cccc4c3c(Cl)cn4CCCCC3CCNCC3)[nH]c2cc1F [Example 131, 2-[3-Chloro-1-(4-piperidin-4-yl-butyl)-1H-indol-4-yl]-5,6-difluoro-1H-benzoimidazole] — 15-fold higher, 3330 nM
- Fc1ccc2[nH]c(-c3cccc4c3c(Cl)cn4CCCCC3CCNCC3)nc2c1F [Example 132, 2-[3-Chloro-1-(4-piperidin-4-yl-butyl)-1H-indol-4-yl]-4,5-difluoro-1H-benzoimidazole] — 15-fold higher, 3330 nM
- Cc1c(F)ccc2[nH]c(-c3ccc4c(ncn4CCCC4CCNCC4)c3C)nc12 [Example 114, 5-Fluoro-4,4′-dimethyl-1′-(3-piperidin-4-yl-propyl)-1H,1′H-[2,5′]bibenzoimidazolyl] — within 1.5-fold, 205 nM
- Cc1c(F)ccc2[nH]c(-c3ccc4c(c3)c(Cl)cn4CCCC3CCNCC3)nc12 [Example 87, 2-[3-Chloro-1-(3-piperidin-4-yl-propyl)-1H-indol-5-yl]-5-fluoro-4-methyl-1H-benzoimidazole] — 8-fold higher, 1830 nM
- CC(C)(C)c1ccc2[nH]c(-c3cccc4c3ccn4CCCCC3CCNCC3)nc2c1 [Example 105, 5-tert-Butyl-2-[1-(4-piperidin-4-yl-butyl)-1H-indol-4-yl]-1H-benzoimidazole] — 12-fold higher, 2660 nM
- Fc1cc(F)c2nc(-c3cc4ccn(CCCC5CCNCC5)c4cc3Cl)[nH]c2c1 [Example 99, 2-[6-Chloro-1-(3-piperidin-4-yl-propyl)-1H-indol-5-yl]-4,6-difluoro-1H-benzoimidazole] — 12-fold higher, 2670 nM
- Cc1ccc2[nH]c(-c3cccc4c3c(Cl)cn4CCCCC3CCN(C)CC3)nc2c1C [Example 74, 2-{3-Chloro-1-[4-(1-methyl-piperidin-4-yl)-butyl]-1H-indol-4-yl}-4,5-dimethyl-1H-benzoimidazole] — 7.3-fold higher, 1670 nM
- Cc1c(-c2nc3c(C)cc(F)cc3[nH]2)ccc2c1CCN2CCCC1CCN(C)CC1 [Example 59, 6-Fluoro-4-methyl-2-{4-methyl-1-[3-(1-methyl-piperidin-4-yl)-propyl]-2,3-dihydro-1H-dihydro-1H-indol-5-yl}-1H-benzoimidazole] — 13-fold lower, 18 nM
- Cc1c(F)ccc2[nH]c(-c3cccc4c3c(Cl)cn4CCCCC3CCNCC3)nc12 [Example 133, 2-[3-Chloro-1-(4-piperidin-4-yl-butyl)-1H-indol-4-yl]-5-fluoro-4-methyl-1H-benzoimidazole] — higher, > 10000 nM
- Cc1c(F)ccc2[nH]c(-c3ccc4c(ccn4CCCC4CCN(C)CC4)c3Cl)nc12 [Example 8, 2-{4-Chloro-1-[3-(1-methyl-piperidin-4-yl)-propyl]-1H-indol-5-yl}-5-fluoro-4-methyl-1H-benzoimidazole] — 7.9-fold lower, 29 nM
